Results published in patent US4968686A, “Acyclic pyrrolo [2,3-d]pyrimidine analogs as antiviral agents” (The Regents of The University of Michigan, priority 1989, dated 1990).

Tests used:
MCMV = experiment: In vivo treatment of mice infected with murine cytomegalovirus (MCMV)
Experimental: Compound UMJD 183 was tested in mice infected with murine cytomegalovirus (MCMV). This animal model has been recognized as having capabilities predictive of efficacy in humans.
Compound UMJD 183 and the drug ganciclovir (DHPG) were administered to groups of 15 mice each at doses and times of administration shown in Table 3. Each compound at all doses was administered intraperitoneally twice daily for five days beginning at either 6, 24 or 48 hours after virus inoculation. Animals were observed daily and the number dying each day recorded.

[1] = Growth of KB cells (population doubling times); assay type: cell-based, human; conditions: human, kb cells; 100 μM; read-out: reduction of KB cell growth rate
Experimental: (§1) Population doubling times and cell viability were measured in uninfected HFF and/or KB cells. Cells were planted in replicate 6-well plastic tissue culture dishes or in 25 cm^2 flasks as described above in part 1. Following an incubation period during which cells attached to the substrate, medium was decanted, the cell sheet rinsed once with HBS, and fresh medium added. The medium consisted of MEM(E) with 1.1 gm NaHCO3 /liter and 10% fetal bovine or calf serum plus appropriate log or half-log concentrations of drug. After additional periods of incubation from 1 to 72 hours at 37° C., cells were harvested by means of 0.05% trypsin plus 0.02% EDTA in a HEPES-buffered salt solution. Cells were enumerated using either a Coulter counter or a hemocytometer and viability determining using trypsan blue dye exclusion.
In more extensive cytotoxicity testing, the halogenated compounds were tested for effects on the growth of KB cells. Populations doubling times were calculated from the logarithmic portions of growth curves and were as follows: […]

HFF cells = experiment: Growth of HFF cells; assay type: cell-based, human; conditions: for HFF population doublings in 70 hours: 100 μM, control two doublings
Experimental: as §1
The effect of these compounds on the growth of human diploid fibroblasts (HFF cells) was less pronounced. During a 70-hour incubation, control cells underwent two doublings. […] A 100 μM concentration reduced the number of cells by less than 10%.

HSV-1 HF strain = experiment: HSV-1 reduction assay, HF strain; assay type: cell-based, herpes simplex virus type 1 (HF strain); conditions: Human alphaherpesvirus 1; read-out: I50 with HF strain of HSV-1
From the text: The 148 strain of HSV-1 was used in most experiments and was provided by Dr. T. W. Schafer of Schering corporation. The HF strain of HSV-1 was used in selected experiments and was obtained from Dr. G. H. Cohen, University of Pennsylvania. The Towne strain, plaque-purified isolate Po, of HCMV was a gift of Dr. Mark Stinski, University of Iowa.
HSV-1 was titered using monolayer cultures of BSC-1 cells. Cells were planted at 3×10^5 cells/well using 6-well cluster dishes. MEM(E) supplemented with 10% fetal bovine serum was employed as medium. After 22-24 hours, cells were 90% confluent and were inoculated in triplicate using at least three ten-fold dilutions with 0.2 ml of the virus suspension to be assayed and incubated in a humidified 4% CO2 […] atmosphere for one hour to permit viral adsorption. Following virus adsorption, the cell sheet was overlayed with 5 ml of MEM(E) with 5% serum plus 0.5% methocel (4000 CPS) and incubated an additional two to three days. Cells were fixed and stained with 0.1% crystal violet in 20% methanol and macroscopic plaques enumerated.
Plaque reduction experiments were HSV-1 were performed using monolayer cultures of BSC-1 cells. The assay was performed exactly as described above except that the 0.2 ml virus suspension contained approximately 100 p.f.u. of HSV-1. Compounds to be tested were dissolved in the overlay medium at concentrations usually ranging from 0.1 to 100 μM in half-or-one logarithm10 dilutions. Titer reduction assays were performed by planting KB cells in 25 cm^2 plastic tissue culture flasks 10 to 24 hours prior to infection. At the onset of experiments, logarithmically growing replicate monolayer cultures were 60 to 80% confluent and contained 2.5 to 4.5×10^6 cells/flask. Medium was decanted and the cultures were infected with 2 to 10 p.f.u. of HSV-1 per cell. Virus was contained in 1.0 ml of VGM supplemented with 5% fetal bovine serum. After a 1 hour adsorption period at […], the cell sheet was rinsed twice with 2 ml of VGM without serum to remove unadsorbed virus and 5 ml of VGM containing drugs at three to five selected concentrations added in duplicate. Following an 18- to 22-hour incubation at 37° C., infected monolayers were treated with EDTA-trypsin to suspend the cells; aliquots were removed, subjected to three cycles of freezing and thawing, and stored at -76° C. for subsequent virus assay. Virus was titered on BSC-1 cells as described above.
Dose-response relationships were used to compare drug effects. These were constructed by linearly regressing the percent inhibition of parameters derived in the preceding sections against log drug concentrations. The 50% inhibitory (I50) concentrations were calculated from the regression lines using the methods described by Goldstein. […]

human PBLs = experiment: DNA synthesis in mitogen-stimulated human PBLs; assay type: cell-based; conditions: pokeweed mitogen or concanavalin A; 0.1, 1, 10 and 100 μM

Q: Which “MDD (Mean Day of Death)” value (MCMV; 1.9 mg/kg at 6 h) does the source give for `Nc1ncnc2c1c(Br)cn2COC(CO)CO` [UMJD 183, 4-amino-5-bromo-7-[(1,3-dihydroxy-2-propoxy)methyl]-pyrrolo[2,3-d]pyrimidine] here?
A: 6.2 days

Q: What about the “Mortality Number” value (MCMV; 1.9 mg/kg at 6 h) of the same molecule?
A: 5/15

Q: What about the “Mortality Percent” value (MCMV; 1.9 mg/kg at 6 h) of the same molecule?
A: 33%

Q: And the “MDD (Mean Day of Death)” value (MCMV; 1.9 mg/kg at 24 h)?
A: 4.8 days

Q: What about the “Mortality Number” value (MCMV; 1.9 mg/kg at 24 h) of the same molecule?
A: 9/15

Q: And the “Mortality Percent” value (MCMV; 1.9 mg/kg at 24 h)?
A: 60%

Q: What about the “MDD (Mean Day of Death)” value (MCMV; 1.9 mg/kg at 48 h) of the same molecule?
A: 4.8 days

Q: And the “Mortality Number” value (MCMV; 1.9 mg/kg at 48 h)?
A: 10/15

Q: And the “Mortality Percent” value (MCMV; 1.9 mg/kg at 48 h)?
A: 67%

Q: What about the “number of animals surviving virus infection (in words)” value (MCMV; 5.6 mg/kg) of the same molecule?
A: highly significant increases in the number of animals surviving

Q: What about the “MDD (Mean Day of Death)” value (MCMV; 5.6 mg/kg at 6 h) of the same molecule?
A: 8.0 days

Q: And the “Mortality Number” value (MCMV; 5.6 mg/kg at 6 h)?
A: 1/15

Q: And the “Mortality Percent” value (MCMV; 5.6 mg/kg at 6 h)?
A: 7%

Q: And the “MDD (Mean Day of Death)” value (MCMV; 5.6 mg/kg at 24 h)?
A: 6.3 days

Q: And the “Mortality Number” value (MCMV; 5.6 mg/kg at 24 h)?
A: 3/15

Q: What about the “Mortality Percent” value (MCMV; 5.6 mg/kg at 24 h) of the same molecule?
A: 20%

Q: What about the “MDD (Mean Day of Death)” value (MCMV; 5.6 mg/kg at 48 h) of the same molecule?
A: 5.5 days

Q: What about the “Mortality Number” value (MCMV; 5.6 mg/kg at 48 h) of the same molecule?
A: 6/15

Q: And the “Mortality Percent” value (MCMV; 5.6 mg/kg at 48 h)?
A: 40%

Q: What about the “MDD (Mean Day of Death)” value (MCMV; 16.7 mg/kg at 6 h) of the same molecule?
A: 8.7 days

Q: And the “Mortality Number” value (MCMV; 16.7 mg/kg at 6 h)?
A: 9/15

Q: And the “Mortality Percent” value (MCMV; 16.7 mg/kg at 6 h)?
A: 60%

Q: What about the “MDD (Mean Day of Death)” value (MCMV; 16.7 mg/kg at 24 h) of the same molecule?
A: 7.1 days

Q: What about the “Mortality Number” value (MCMV; 16.7 mg/kg at 24 h) of the same molecule?
A: 12/15

Q: And the “Mortality Percent” value (MCMV; 16.7 mg/kg at 24 h)?
A: 80%

Q: And the “MDD (Mean Day of Death)” value (MCMV; 16.7 mg/kg at 48 h)?
A: 8.4 days

Q: What about the “Mortality Number” value (MCMV; 16.7 mg/kg at 48 h) of the same molecule?
A: 13/15

Q: What about the “Mortality Percent” value (MCMV; 16.7 mg/kg at 48 h) of the same molecule?
A: 87%

Q: What about the “MDD (Mean Day of Death)” value (MCMV; 50 mg/kg at 6 h) of the same molecule?
A: 10.8 days

Q: What about the “Mortality Percent” value (MCMV; 50 mg/kg at 6 h) of the same molecule?
A: 60%

Q: And the “Mortality Number” value (MCMV; 50 mg/kg at 6 h, i.p. twice daily 5 days)?
A: 9/15

Q: What about the “MDD (Mean Day of Death)” value (MCMV; 50 mg/kg at 24 h) of the same molecule?
A: 8.8 days

Q: And the “Mortality Number” value (MCMV; 50 mg/kg at 24 h)?
A: 14/15

Q: What about the “Mortality Percent” value (MCMV; 50 mg/kg at 24 h) of the same molecule?
A: 93%

Q: And the “MDD (Mean Day of Death)” value (MCMV; 50 mg/kg at 48 h)?
A: 7.5 days

Q: What about the “Mortality Number” value (MCMV; 50 mg/kg at 48 h) of the same molecule?
A: 13/15

Q: What about the “Mortality Percent” value (MCMV; 50 mg/kg at 48 h) of the same molecule?
A: 87%

Q: And the “life span of MCMV-infected mice (in words)” value (MCMV; all doses)?
A: prolonged life span (increased the mean day of death) at all doses

Q: Which inhibition at 100 µM [1] does the source give for `OCC(CO)OCn1cc(Br)c2c(NO)ncnc21` [UMJD 299, 4-hydroxylamino-5-bromo-7-[(1,3-dihydroxy-2-propoxy)methyl]pyrrolo[2,3-d]pyrimidine] here?
A: > 50%

Q: With `Nc1ncnc2c1c(Br)cn2COCCO` [UMJD 102, 4-Amino-5-bromo-7-(2-hydroxyethoxymethyl)pyrrolo[2,3-d]-pyrimidine] as the molecule, how does the “effect on growth of HFF cells relative to UMJD 100 (in words)” value (HFF cells) read?
A: more pronounced

Q: And the “HFF population doublings in 70 hours” value (HFF cells; 70 hours)?
A: one population doubling

Q: And the IC50 (HSV-1 HF strain)?
A: 28 µM

Q: Which IC50 (HSV-1 HF strain) does the source give for `Nc1nc2c(ncn2COCCO)c(=O)[nH]1` [Acyclovir, reference compound] here?
A: 36 µM

Q: Which “effect on DNA synthesis in human PBLs” value (human PBLs) does the source give for `Nc1ncnc2c1c(Cl)cn2COCCO` [UMJD 100, 4-Amino-5-chloro-7-(2-hydroxyethoxymethyl)pyrrolo[2,3-d]-pyrimidine] here?
A: did not affect DNA synthesis

Q: And the “effect on number of HFF cells present at 70 hours (in words)” value (HFF cells; 10 or 32 μM, 70 hours)?
A: no decrease in the number of cells

Q: What about the IC50 (HSV-1 HF strain) of the same molecule?
A: > 100 µM

Q: For `Nc1ncnc2c1c(I)cn2COCCO` [UMJD 104, 4-Amino-5-iodo-7-(2-hydroxyethoxymethyl)pyrrolo[2,3-d]-pyrimidine], which “effect on growth of HFF cells relative to UMJD 100 (in words)” value (HFF cells) is on record?
A: more pronounced

Q: And the “HFF population doublings in 70 hours” value (HFF cells; 70 hours)?
A: one population doubling

Q: What about the IC50 (HSV-1 HF strain) of the same molecule?
A: 54 µM

Q: What does the source list for `Nc1nc(O)c2ncn(COC(CO)CO)c2n1` [Ganciclovir (DHPG), reference compound]?
A: MDD (Mean Day of Death) (MCMV; 0.6 mg/kg at 6 h): 4.6 days; Mortality Number (MCMV; 0.6 mg/kg at 6 h): 14/15; Mortality Percent (MCMV; 0.6 mg/kg at 6 h): 93%; MDD (Mean Day of Death) (MCMV; 0.6 mg/kg at 24 h): 5.4 days; Mortality Number (MCMV; 0.6 mg/kg at 24 h): 12/15; Mortality Percent (MCMV; 0.6 mg/kg at 24 h): 80%; MDD (Mean Day of Death) (MCMV; 0.6 mg/kg at 48 h): 5.3 days; Mortality Number (MCMV; 0.6 mg/kg at 48 h): 14/15; Mortality Percent (MCMV; 0.6 mg/kg at 48 h): 93%; MDD (Mean Day of Death) (MCMV; 1.9 mg/kg at 6 h): 5.4 days; Mortality Number (MCMV; 1.9 mg/kg at 6 h): 5/15; Mortality Percent (MCMV; 1.9 mg/kg at 6 h): 33%; MDD (Mean Day of Death) (MCMV; 1.9 mg/kg at 24 h): 4.9 days; Mortality Number (MCMV; 1.9 mg/kg at 24 h): 12/15; Mortality Percent (MCMV; 1.9 mg/kg at 24 h): 80%; MDD (Mean Day of Death) (MCMV; 1.9 mg/kg at 48 h): 4.9 days; Mortality Number (MCMV; 1.9 mg/kg at 48 h): 11/15; Mortality Percent (MCMV; 1.9 mg/kg at 48 h): 73%; MDD (Mean Day of Death) (MCMV; 5.6 mg/kg at 6 h): 4.2 days; Mortality Number (MCMV; 5.6 mg/kg at 6 h): 5/15; Mortality Percent (MCMV; 5.6 mg/kg at 6 h): 33%; MDD (Mean Day of Death) (MCMV; 5.6 mg/kg at 24 h): 5.3 days; Mortality Number (MCMV; 5.6 mg/kg at 24 h): 7/15; Mortality Percent (MCMV; 5.6 mg/kg at 24 h): 47%; MDD (Mean Day of Death) (MCMV; 5.6 mg/kg at 48 h): 5.5 days; Mortality Number (MCMV; 5.6 mg/kg at 48 h): 10/15; Mortality Percent (MCMV; 5.6 mg/kg at 48 h): 67%; MDD (Mean Day of Death) (MCMV; 16.7 mg/kg at 6 h): 3.8 days; Mortality Number (MCMV; 16.7 mg/kg at 6 h): 4/15; Mortality Percent (MCMV; 16.7 mg/kg at 6 h): 27%; MDD (Mean Day of Death) (MCMV; 16.7 mg/kg at 24 h): 5.3 days; Mortality Number (MCMV; 16.7 mg/kg at 24 h): 7/15; Mortality Percent (MCMV; 16.7 mg/kg at 24 h): 47%; MDD (Mean Day of Death) (MCMV; 16.7 mg/kg at 48 h): 5.5 days; Mortality Number (MCMV; 16.7 mg/kg at 48 h): 8/15; Mortality Percent (MCMV; 16.7 mg/kg at 48 h): 53%
